# Laboratory results from PubChem BioAssay AID732 (Emory University Molecular Libraries Screening Center, 2007).
# “And” between values parts separate entries of the source, which are not always exact repeats. Equal entries are not always repeated. The source made the active and inactive calls. The rule behind the calls is not given here.
# System: in vivo angiogenesis, blood vessel count
# Experiment: reduction of blood vessel formation in vivo – HTS, in vivo study (AID 732);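 note: zebrafish embryos dosed at one day post fertilization; 0% = reference inhibitor and 100% = plate mean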
# Conditions: stronger effect = lower value;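 tested at 30 µM in the well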
row,SMILES,vessel count % control
1,Cc1nc(N=Nc2cc(S(=O)(=O)O)c3cc([N+](=O)[O-])cc(S(=O)(=O)O)c3c2)c(COP(=O)(O)O)c(C=O)c1O,93.5% (inactive)
2,CC1(C)CCC2=C(O1)c1ccccc1C(=O)C2=O,65.8% (inactive)
3,NC(N)=N[C@@H](CCC(=O)O)C(=O)O,99.2% (inactive)
4,C[C@]12Cc3cn4c(nc3C=C1CCC1C2CC[C@@]2(C)[C@H]1CC[C@@]2(O)C#N)nc1ccccc14 (some centres not stated),97% (inactive)
5,CC1=NS(=O)(=O)c2cc(Cl)ccc2N1,116% (inactive)
6,NC1(C(=O)O)CCCCC1,110% (inactive)
7,C[C@@H](CN1CCC(Cc2ccccc2)CC1)[C@@H](O)c1ccc(O)cc1,112% (inactive)
8,Cc1ccc(N(CC2=NCCN2)c2cccc(O)c2)cc1,77.7% (inactive)
9,CSC(=N)N,68.6% (inactive)
10,CN1Cc2c(N)cccc2C(c2ccccc2)C1 (configuration not stated),112% (inactive)
11,O=C(O)c1cccnc1Nc1cccc(C(F)(F)F)c1,102% (inactive)
12,CCCCN1CCC(COC(=O)c2cc(Cl)c(N)c3c2OCCO3)CC1,105% (inactive)
13,NNCc1cccc(O)c1,85.8% (inactive)
14,Cc1ccc2c(c1)C(N1CCN(C)CC1)=Nc1cccnc1N2,127% (inactive)
15,Cc1ccccc1N1CCN(S(=O)(=O)C[C@]23CCC(CC2NC(=O)[C@@H](N)CCS(C)(=O)=O)C3(C)C)CC1 (some centres not stated),107% (inactive)
16,O=C(Cc1ccc(Cl)c(Cl)c1)OCCN1CCCC1,81.9% (inactive)
17,CC(N)(Cc1ccc(O)c(O)c1)C(=O)O (configuration not stated),108% (inactive)
18,CCN(CC)C(=O)N[C@@H]1C=C2c3cccc4[nH]cc(c34)C[C@H]2N(C)C1,75.3% (inactive)
19,O=C(/C=C/c1ccc(O)cc1)c1ccc(O)cc1O,98.4% (inactive)
20,CC(=O)O[C@]1(C(C)=O)CC[C@H]2[C@@H]3C=C(Cl)C4=CC(=O)[C@@H]5C[C@@H]5[C@]4(C)[C@H]3CC[C@@]21C,71.2% (inactive)
21,C[C@](N)(Cc1ccc(O)cc1)C(=O)O,116% (inactive)
22,C=Cc1c(C)c2cc3[nH]c(cc4nc(cc5nc(cc1[nH]2)C(C)=C5CCC(=O)O)C(CCC(=O)O)=C4C)c(C)c3C=C,112% (inactive)
23,CC(N)C1CCC(C(=O)Nc2ccncc2)CC1 (configuration not stated),111% (inactive)

row,SMILES,vessel count % control
1,O=c1c(-c2ccc(O)cc2)coc2cc(O)cc(O)c12,107% (inactive)
2,COc1ccccc1N1CCN(CCCCNC(=O)c2ccc3ccccc3c2)CC1,52% (inactive)
3,CN1CCc2ccccc2Cc2[nH]c3ccccc3c2CC1,66.8% (inactive)
4,O=S1(=O)N(CCN2CC=C(c3c[nH]c4cc(F)ccc34)CC2)c2cccc3c2N1CCC3,148% (inactive)
5,CCCCCCC(C)(C)c1ccc([C@@H]2C[C@H](O)CC[C@H]2CCCO)c(O)c1,100% (inactive)
6,CNCCC(Oc1ccccc1OC)c1ccccc1 (configuration not stated),113% (inactive)
7,O=C(O)c1cc([N+](=O)[O-])ccc1NCCCc1ccccc1,92.5% (inactive)
8,O=c1c(-c2ccc(O)cc2)coc2cc(O)ccc12,105% (inactive)
9,CCCCCC(O)c1cccc(OCc2ccc3ccccc3n2)c1 (configuration not stated),83.4% (inactive)
10,CN[C@H](CC(C)C)C(=O)N[C@H]1C(=O)N[C@@H](CC(N)=O)C(=O)N[C@H]2C(=O)N[C@H]3C(=O)N[C@H](C(=O)N[C@H](C(=O)O)c4cc(O)cc(O)c4-c4cc3ccc4O)[C@H](O)c3ccc(c(Cl)c3)Oc3cc2cc(c3O[C@@H]2O[C@H](CO)[C@@H](O)[C@H](O)[C@H]2O[C@H]2C[C@](C)(N)[C@H](O)[C@H](C)O2)Oc2ccc(cc2Cl)[C@H]1O,103% (inactive)
11,CC(C)C(=O)c1c(C(C)C)nn2ccccc12,94.7% (inactive)
12,Nc1ncnc2c1c(-c1ccc(Oc3ccccc3)cc1)cn2C1CCCC1,77.9% (inactive)
13,CN1C(=O)CCS(=O)(=O)C1c1ccc(Cl)cc1 (configuration not stated),97% (inactive)
14,Oc1ccc(O)cc1,128% (inactive)
15,CN(C)c1cc2c(Nc3ccc4c(cnn4Cc4ccccc4)c3)ncnc2cn1,84.7% (inactive)
16,OC(CN1CCC(Cc2ccc(F)cc2)CC1)c1ccc(Cl)cc1 (configuration not stated),61.6% (inactive)
17,O[Si](CCCN1CCCCC1)(c1ccc(F)cc1)C1CCCCC1 (configuration not stated),107% (inactive)
18,O=c1[nH]c2ccccc2n1CCCN1CCN(C(c2ccccc2)c2ccccc2)CC1,120% (inactive)
19,Nc1ncnc2c1ncn2[C@@H]1O[C@H](COP(=O)(O)OP(=O)(O)OP(=O)(O)OP(=O)(O)OC[C@@H]2O[C@H](n3cnc4c(N)ncnc43)C(O)[C@@H]2O)[C@H](O)C1O (some centres not stated),89.7% (inactive)
20,O=C1C=CC(=O)C=C1,84.8% (inactive)
21,CCc1cccc(N(C)C(N)=Nc2cccc3ccccc23)c1,105% (inactive)
22,Nc1ncnc2c1ncn2[C@@H]1O[C@H](COP(=O)(O)CP(=O)(O)OP(=O)(O)O)[C@H](O)C1O (some centres not stated),95.1% (inactive)
23,CCN(CC)C(=O)c1ccc(O)c(OC)c1,96.8% (inactive)

row,SMILES,vessel count % control
1,CCCCC/C=C\CC(O)/C=C/c1cccc(CC(O)CCCCO)n1 (configuration not stated),100% (inactive)
2,OCC1NC[C@@H](O)C(O)[C@@H]1O (some centres not stated),89.4% (inactive)
3,O=c1ccc2c(OCCCCc3ccccc3)c3ccoc3cc2o1,76.3% (inactive)
4,CCCCC1C(=O)N(c2ccccc2)N(c2ccccc2)C1=O,93.9% (inactive)
5,Nc1nc(N)c2nc(CNc3ccc(C(=O)NC(CCC(=O)O)C(=O)O)cc3)cnc2n1 (configuration not stated),99.6% (inactive)
6,C[n+]1cc2c3c(ccc2c2ccc4cc5c(cc4c21)OCO5)OCO3,0% (inactive)
7,CC12C(=O)OC(=O)C1(C)C1CCC2O1 (configuration not stated),0% (inactive)
8,Nc1cc(=O)[nH]c(N)n1,119% (inactive)
9,Cc1ccccc1CNc1ncnc2c1ncn2C1OC(CO)C(O)C1O (configuration not stated),93.1% (inactive)
10,COc1[nH]c2ccc(F)cc2c1C(=O)OCC1CCN(CCNS(C)(=O)=O)CC1,99.6% (inactive)
11,Clc1ccc(N2CC3CCC(C2)N3)nn1,106% (inactive)
12,CCCN(CCC)CCc1cccc2c1CC(=O)N2,96.5% (inactive)
13,CC(C)=CCC/C(C)=C/CC/C(C)=C/CSc1ccccc1C(=O)O,78.4% (inactive)
14,Fc1ccc(C(OCCN2CCN(CCCc3ccccc3)CC2)c2ccc(F)cc2)cc1,71.4% (inactive)
15,NC(C(=O)O)c1cc(=O)[nH]o1 (configuration not stated),134% (inactive)
16,CC[C@@H](CO)NC(=O)[C@@H]1C=C2c3cccc4[nH]cc(c34)C[C@H]2N(C)C1,121% (inactive)
17,CCCn1c(C)c(C(=O)c2ccc3ccccc3c2)c2ccccc21,110% (inactive)
18,Oc1[nH]c2ccccc2c1C1=Nc2ccc(Br)cc2/C1=N\OCCN1CCCC1,91.2% (inactive) and 74% (inactive)
19,Oc1ccccc1O,96.4% (inactive)
20,NC(N)=Nc1ccc2[nH]c3c(c2c1)C[C@@]1(O)[C@H]2Cc4ccc(O)c5c4[C@@]1(CCN2CC1CC1)[C@H]3O5,101% (inactive)
21,Nn1nnc2ccccc21,109% (inactive)
22,Cc1cccc(C(=O)NCN2CCN(c3ccccc3C#N)CC2)c1,110% (inactive)
23,N[C@H](CO)C(=O)O,105% (inactive)

row,SMILES,vessel count % control
1,O=C1N=C(O)CN1/N=C/c1ccc(-c2ccc([N+](=O)[O-])cc2)o1,90.4% (inactive)
2,CC(C)[C@@]1(NC(=O)[C@@H]2C=C3c4cccc5[nH]cc(c45)C[C@H]3N(C)C2)O[C@@]2(O)[C@@H]3CCCN3C(=O)[C@H](Cc3ccccc3)N2C1=O,94% (inactive)
3,C/C=C1\C(=O)CC2C3CCC4=CC(=O)CC[C@]4(C)C3CC[C@]12C (some centres not stated),102% (inactive)
4,CCSC(=N)N,62.2% (inactive)
5,C[N+](C)(C)CCC(=O)c1cccc2ccccc12,0% (inactive)
6,O=P(O)(O)C(Cl)(Cl)P(=O)(O)O,110% (inactive)
7,CC[C@@H](C)[C@H]1O[C@]2(CC[C@@H]1C)C[C@@H]1C[C@@H](C/C=C(\C)[C@@H](O[C@H]3C[C@H](OC)[C@@H](O[C@H]4C[C@H](OC)[C@@H](O)[C@H](C)O4)[C@H](C)O3)[C@@H](C)/C=C/C=C3\CO[C@@H]4[C@H](O)C(C)=C[C@@H](C(=O)O1)[C@]34O)O2,78.7% (inactive)
8,C[C@@](Cc1ccc(O)c(O)c1)(NN)C(=O)O,94.6% (inactive)
9,Cc1nc(N=Nc2ccc(C(=O)O)cc2)c(COP(=O)(O)O)c(C=O)c1O,93.9% (inactive)
10,N=C(N)c1ccccc1,110% (inactive)
11,C[C@H]1c2cccc(O)c2C(O)=C2C(=O)[C@]3(O)C(O)=C(C(N)=O)C(=O)[C@@H](N(C)C)[C@@H]3[C@@H](O)[C@@H]21,91.8% (inactive)
12,C1CCC(N=C(NC23CC4CC(CC(C4)C2)C3)N2CCOCC2)CC1,111% (inactive)
13,COc1ccc2[nH]c3c(c2c1)CCNC3,137% (inactive)
14,COCCOC(=O)C1=C(C)NC(C)=C(C(=O)OC(C)C)C1c1cccc([N+](=O)[O-])c1 (configuration not stated),95.6% (inactive)
15,Nc1nnc(-c2cccc(Cl)c2Cl)c(N)n1,62.2% (inactive)
16,CC(C)C[C@H](N)CSSC[C@@H](N)CC(C)C,39.2% (inactive)
17,Nc1nc(Nc2ccccc2)nc2c1ncn2[C@@H]1O[C@H](CO)[C@H](O)C1O (some centres not stated),94.3% (inactive)
18,O=C(O)CP(=O)(O)O,79.8% (inactive)
19,NCCCS(=O)(=O)O,144% (inactive)
20,CO/N=C(\C(=O)N[C@@H]1C(=O)N2C(C(=O)O)=C(CSc3nc(=O)c(O)nn3C)CSC12)c1csc(N)n1 (some centres not stated),117% (inactive)
21,CN(C)CCCCSC(=N)N,105% (inactive)
22,O=c1cc(O)cc(/C=C/c2ccc(O)c(O)c2)o1,122% (inactive)
23,Cn1cnc([N+](=O)[O-])c1Sc1ncnc2nc[nH]c12,81.5% (inactive)
